Measured values taken from patent US20120124703A1, “NOVEL COPRINUS COMATUS AND TREMELLA MESENTERICA MUSHROOM STRAINS, PRODUCTS AND EXTRACTS THEREOF AND COMPOSITIONS COMPRISING THEM” (PALMED TEVA LTD, priority 2009, published 2012).
Like-named read-outs stand apart in the source and are kept apart here. Marks after values point to notes of the source that are not given here. *1 amine or outer side, *2 acyl side, *3 side chain or, on linkers, in order; H or OH if unused. Where a SMILES comes first, the peptide text is derived from it. Bridges are numbered along the chain shown (N, C = ends). Roman numbers before positions name the chains, in order. [ ]: non-standard residue; d: D form. Actinocin(9to1) = Cc1c2oc3c(C)ccc(C(=O)[*:1])c3nc-2c(C(=O)[*:2])c(N)c1=O; NMeV = CN[C@H](C(=O)O)C(C)C; Sar = CNCC(=O)O

Tests used:
[1] = system: Tobacco mosaic virus (TMV), strain U1; experiment: Influence of actinomycin D on GXM-induced resistance to TMV; format: in vivo, Nicotiana tabacum, variety Immune 580; details: FIG. 14
Procedure: Abscissa: variants of the experiment: 1—GXM; 2—mixture of GXM and AMD (10 μg/mL); 3—AMD (10 μg/mL) introduced 2 days after GXM; 4—AMD (20 μg/mL) introduced 2 days after GXM; 5—AMD (10 μg/mL). Ordinate: the ratio (%) of the quantity of local lesions in the experiment (dark solid bars) and in control (textured light bars).
When studying the GXM-induced mechanism of plant resistance, we used actinomycin D (AMD) inhibiting the DNA-dependent synthesis of mRNA by blocking RNA-polymerases. Solutions of AMD at the concentrations of 10 and 20 μg/mL and rhamnolipide (RL)−1 mg/mL, which were subepidermally introduced simultaneously or via definite periods of time after the GXM.

[2] = system: Coprinus comatus lectin; experiment: Sugar-binding specificity: inhibition of lectin-induced hemagglutination by carbohydrates; format: biochemical; details: for Inhibition of lectin hemagglutinating activity by sugar: Coprinus comatus biomass lectin
Procedure: Sugar-binding specificity of lectins. The investigation of inhibition of lectin-induced hemagglutination by various carbohydrates was performed in a manner analogous to the hemagglutination test. Sugar samples (0.3 M) were prepared in phosphate buffered saline. All of the dilutions were mixed with an equal volume (25 μL) of a solution of the lectin. The mixture was allowed to stand for 30 min at room temperature and then mixed with 50 μL of 2% rabbit erythrocyte suspension. Sugar-binding specificity was expressed as the minimum concentration of each sugar required for inhibition of hemagglutination of titer 4 of the lectin. N-Acetyl-D-galactosamine (GalNAc); N-Acetyl-D-glucosamine (GlcNAc), D(+)Galactose (Gal); D(+)Glucose, D(+)Lactose (Lac); D(+)Mannose, xylose, cellobiose, and dulcitol were tested for detection of sugar-binding specificity of lectins.

[3] = system: IκBα phosphorylation; experiment: pIκBα level in H2O2-stimulated MCF7 cells, Western immunoblot; format: cell-based
Procedure: Cell Lysis, Preparation of Total Cell Lysates. In order to measure the intracellular levels of certain proteins as a response to the crude fungal extracttreatments, each time after cells were collected, a total cell lysis was performed. The exact procedure of the total cell lysis is described below.
Cells were collected and washed 3 times with cold phosphate buffered saline (PBS) through centrifugation for 5 min, at 3,000 rpm, and 4° C. The final cell amounts were collected in Eppendorf tubes and the left over PBS from the last washing was discarded so that only the cell pellet was left in each tube. For cell lysis, each time a freshly prepared lysis buffer was used with the following content: 500-1000 μL, depending on the number of samples, of cell lysis reagent, protease inhibitor cocktail, and both phosphatase inhibitor cocktails 1 and 2 at the final concentration of 1%, and 0.3 M of phenylmethylsulfonyl fluoride (PMSF). […]
As a control, no H2O2 treatment was used, according to which the kinetics of pIκBα were determined. […]
Densitometric Analysis. Densitometric quantitative analyses of the protein bands, detected by Western blot, have been carried out using the TotalLab software and are presented as folds of the volumes of protein bands. […]

[4] = system: interferon (IFN); experiment: IFN level in blood plasma of mice after per os biomass; format: in vivo; details: dose 50 mg/animal
[5] = system: Tobacco mosaic virus (TMV), strain U1; experiment: Induction of resistance against TMV infection in Datura; format: in vivo; details: Datura stramonium
Procedure: (§1) Virus: Tobacco mosaic virus (TMV), strain U1;
(§2) Plants: Tobacco (Nicotiana tabacum L.) variety Immune 580 and Datura stramonium L., cultivated in a hothouse under conditions of natural lighting, humidity, and temperature. Plants at a stage of 4-6 leaves were used in the experiment.
(§3) Investigations of induced properties of GXM were carried out on the tobacco and datura plants. […] The two halves of leaves were inoculated by TMV (1-5 μg/mL). The degree of AVR was taken into account by the formula mentioned above.

[6] = system: Tobacco mosaic virus (TMV), strain U1; format: in vivo; details: Datura stramonium
Description: as §1, §2
Polysaccharides, extracted from culture liquid of Tremella mesenterica were employed in this study using the method of Kovalenko with some modifications. To isolate acid glucuronoxylomannan (GXM) from neutral polysaccharides, we applied its sedimentation from a water solution with acetone (1:1) in the presence of 0.05 M CaCl2. Gas chromatography was carried out on Sephadex G-50 (2.5×80 cm) in pyridinium-acetate buffer, pH 4.5 (4 mL pyridine and 10 mL AcOH in 1 L water) and the eluate was monitored by refractive index detector.
In in vitro experiments the water solutions of the total preparation, neutral polysaccharide preparations, and pure GXM at concentrations of 10, 100, 500, and 1000 μg/mL were added to a suspension of TMV (10 μg/mL). After incubation over the 30 min the left halves of datura's leaves were inoculated with this mixture. The right halves of leaves were inoculated with TMV at the same concentration without polysaccharides. The degree of inhibition of viral infection, or VIR, was counted (in percentage) according to the number of local lesions on the experimental and control halves of the leaves by the following formula: I=((K−D)/K) 100%, where I—is a degree of virus inhibition or level of AVR, %; K—is the number (size) of local lesions in the control; D—is the number (size) of local lesions in the experiment.

[7] = system: Tobacco mosaic virus (TMV), strain U1; experiment: Induction of resistance against TMV infection in tobacco; format: in vivo, Nicotiana tabacum, variety Immune 580; details: for Level of induced resistance, % / Number of local lesions per leaf, Experiment: Nicotiana tabacum Immune 580; for Level of resistance: GXM 1000 μg/mL, FIG. 11
Description: Abscissa: interval between introduction of GXM and inoculation of TMV (days). Ordinate: the ratio (%) of the number of local lesions in the experiment (dark solid bars) and in control (textured light bars).
Abscissa: interval between introduction of GXM and inoculation of TMV (days). Ordinate: size of local lesions (mm) in the experiment (dark solid bars) and in control (textured light bars).
as §1, §2, §3

Cc1c2oc3c(C)ccc(C(=O)N[C@@H]4C(=O)N[C@H](C(C)C)C(=O)N5CCC[C@H]5C(=O)N(C)CC(=O)N(C)[C@@H](C(C)C)C(=O)O[C@@H]4C)c3nc-2c(C(=O)N[C@@H]2C(=O)N[C@H](C(C)C)C(=O)N3CCC[C@H]3C(=O)N(C)CC(=O)N(C)[C@@H](C(C)C)C(=O)O[C@@H]2C)c(N)c1=O [AMD, actinomycin D] (I: T[dV]P[Sar][NMeV] / II: T[dV]P[Sar][NMeV]; ester I:1-I:C, II:1-II:C; linker I:N-II:N via Actinocin(9to1)) was tested. Which “Inhibition of development of GXM-induced AVR” value ([1]; AMD 10 μg/mL) did it give?
Its value is “completely”.

And the “Inhibition of development of GXM-induced AVR” value ([1]; AMD 20 μg/mL)?
The value was “partly”.

OC[C@H]1O[C@@H](O[C@H]2[C@H](O)[C@@H](O)C(O)O[C@@H]2CO)[C@H](O)[C@@H](O)[C@H]1O (stereo partly drawn) [Lactose, D(+)Lactose] was tested. Which MIC of saccharides ([2]; lactose, minimal concentration inhibiting hemagglutination) did it give?
The MIC of saccharides was 780 µM.

Which “Inhibition of lectin hemagglutinating activity by sugar” value (“Inhibition … by sugar” for short) [2] does the source give for O=C[C@H](O)[C@@H](O)[C@H](O[C@@H]1O[C@H](CO)[C@@H](O)[C@H](O)[C@H]1O)[C@H](O)CO [cellobiose] here?
The value was “did not inhibit”.

COc1cc(/C=C/C(=O)CC(=O)/C=C/c2ccc(O)c(OC)c2)ccc1O [curcumin] was tested. Which pIκBα level ([3]; 10 μM, 100 μM H2O2, preliminary data) did it give?
Its pIκBα level is “significantly inhibited”.

What about the “Effect on IκBα phosphorylation” value ([3]; MCF7, 10 min 100 μM H2O2, FIG. 2) of the same molecule?
The value was “high phospho-IkBα inhibitory effect”.

With OC[C@@H](O)[C@H](O)[C@H](O)[C@@H](O)CO [dulcitol] as the molecule, how does the “Inhibition … by sugar” value [2] read?
Its value is “did not inhibit”.

With O=C[C@H](O)[C@@H](O)[C@H](O)CO [xylose] as the molecule, how does the “Inhibition … by sugar” value [2] read?
The value was “did not inhibit”.

Poly I:C was tested. Which IFN titre ([4]; 6 hours) did it give?
Its IFN titre is 320 units/ml.

And the IFN titre ([4]; 24 hours)?
The IFN titre was 40 units/ml.

What about the IFN titre ([4]; 48 hours) of the same molecule?
The IFN titre was <20 units/ml.

How did the “Level of induced resistance, %” value ([5]; 100 μg/mL) turn out when glucuronoxylomannan [GXM] was run?
Its value is 110%.

What about the “Number of local lesions per leaf, Experiment” value (from here on “Number … per leaf, Experiment”) ([5]; 100 μg/mL) of the same molecule?
Its value is 71.2.

And the “Level of induced resistance, %” value ([5]; 500 μg/mL)?
Its value is 90%.

And the “Number … per leaf, Experiment” value ([5]; 500 μg/mL)?
The value was 90.0.

And the “Level of induced resistance, %” value ([5]; 1000 μg/mL)?
The value was 14* %.

What about the “Number … per leaf, Experiment” value ([5]; 1000 μg/mL) of the same molecule?
Its value is 119.9.

And the “Level of induced resistance, %” value ([5]; 2000 μg/mL)?
The value was 33** %.

What about the “Number … per leaf, Experiment” value ([5]; 2000 μg/mL) of the same molecule?
The value was 119.6.

What about the “Number … per leaf, Experiment” value ([6]; 10 μg/mL) of the same molecule?
The value was 26.5.

What about the “Inhibition, %” value ([6]; 100 μg/mL) of the same molecule?
Its value is 16* %.

And the “Number … per leaf, Experiment” value ([6]; 100 μg/mL)?
The value was 4.5.

And the “Number … per leaf, Experiment” value ([6]; 1000 μg/mL)?
Its value is 1.3.

What about the “Level of induced resistance, %” value ([7]; 100 μg/mL) of the same molecule?
The value was 20%.

What about the “Number … per leaf, Experiment” value ([7]; 100 μg/mL) of the same molecule?
Its value is 98.1.

And the “Level of induced resistance, %” value ([7]; 500 μg/mL)?
Its value is 20%.

And the “Number … per leaf, Experiment” value ([7]; 500 μg/mL)?
The value was 102.7.

What about the “Level of induced resistance, %” value ([7]; 1000 μg/mL) of the same molecule?
Its value is 17* %.

What about the “Number … per leaf, Experiment” value ([7]; 1000 μg/mL) of the same molecule?
Its value is 128.5.

What about the “Size of local lesions, experiment vs control” value ([7]; 1000 μg/mL, tobacco) of the same molecule?
The value was “reliable differences were not observed”.

What about the “Level of induced resistance, %” value ([7]; 2000 μg/mL) of the same molecule?
Its value is 52** %.

What about the “Number … per leaf, Experiment” value ([7]; 2000 μg/mL) of the same molecule?
Its value is 63.4.

And the “Growth (size) of TMV local lesions” value ([7]; 2500 μg/mL, tobacco, FIG. 13)?
Its value is “intensifies the growth of viral lesions”.

What about the “Development of AVR relative to TMV” value ([7]; 1000 and 2500 μg/mL, first day after the inducer, tobacco) of the same molecule?
The value was “induces the development of AVR”.

And the Level of resistance ([7]; 5th day after the inducer, tobacco)?
Its Level of resistance is 30%.

And the Level of resistance ([7]; 7th day after the inducer, tobacco)?
The Level of resistance was 20%.
